Laboratory results from US9682141B2, “Combination of kinase inhibitors and uses thereof” (INTELLIKINE LLC, priority 2011, dated 2017).
Where two headings read alike, the source gives them in different places.

Columns and labels:
Assay type in all cases: biochemical
PI3K γ = PI3K γ (Homo sapiens (Human), UniProt P48736); assay: PI 3-Kinase (human) HTRF assay, p110γ
PI3K β = PI3K β (Homo sapiens (Human), UniProt P42338); assay: PI 3-Kinase (human) HTRF assay, p110β/p85α
PI3K α = PI3K α (Homo sapiens (Human), UniProt P42336); assay: PI 3-Kinase (human) HTRF assay, p110α/p85α
Sequence of PI3K α (P42336 whole entry): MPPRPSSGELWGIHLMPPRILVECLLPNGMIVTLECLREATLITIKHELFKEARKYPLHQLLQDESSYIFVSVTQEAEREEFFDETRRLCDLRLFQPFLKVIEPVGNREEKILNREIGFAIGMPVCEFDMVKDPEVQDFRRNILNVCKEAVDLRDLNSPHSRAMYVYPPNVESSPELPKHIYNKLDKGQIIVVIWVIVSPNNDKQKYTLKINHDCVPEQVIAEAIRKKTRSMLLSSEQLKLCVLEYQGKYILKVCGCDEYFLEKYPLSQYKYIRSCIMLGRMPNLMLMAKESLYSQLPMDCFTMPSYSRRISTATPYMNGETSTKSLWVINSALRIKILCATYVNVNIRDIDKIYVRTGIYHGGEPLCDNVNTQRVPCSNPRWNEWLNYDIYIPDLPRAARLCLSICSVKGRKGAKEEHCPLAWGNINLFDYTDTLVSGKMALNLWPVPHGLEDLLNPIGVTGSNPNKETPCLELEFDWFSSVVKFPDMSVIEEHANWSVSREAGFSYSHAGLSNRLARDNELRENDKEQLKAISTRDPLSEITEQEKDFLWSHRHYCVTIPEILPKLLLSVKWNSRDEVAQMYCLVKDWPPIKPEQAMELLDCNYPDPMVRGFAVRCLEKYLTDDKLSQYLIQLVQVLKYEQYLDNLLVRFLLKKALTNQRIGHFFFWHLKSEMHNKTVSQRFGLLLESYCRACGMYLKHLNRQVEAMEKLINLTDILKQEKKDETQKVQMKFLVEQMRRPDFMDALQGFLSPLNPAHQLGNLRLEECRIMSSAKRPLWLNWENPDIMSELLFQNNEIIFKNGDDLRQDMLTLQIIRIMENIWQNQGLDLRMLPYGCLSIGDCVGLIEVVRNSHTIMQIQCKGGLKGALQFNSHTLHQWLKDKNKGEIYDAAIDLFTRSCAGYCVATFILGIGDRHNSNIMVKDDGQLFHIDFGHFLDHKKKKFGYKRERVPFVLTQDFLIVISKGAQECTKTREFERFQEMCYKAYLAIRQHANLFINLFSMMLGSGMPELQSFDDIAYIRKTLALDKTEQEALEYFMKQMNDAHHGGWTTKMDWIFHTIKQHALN
Sequence of PI3K α (P27986 whole entry partner): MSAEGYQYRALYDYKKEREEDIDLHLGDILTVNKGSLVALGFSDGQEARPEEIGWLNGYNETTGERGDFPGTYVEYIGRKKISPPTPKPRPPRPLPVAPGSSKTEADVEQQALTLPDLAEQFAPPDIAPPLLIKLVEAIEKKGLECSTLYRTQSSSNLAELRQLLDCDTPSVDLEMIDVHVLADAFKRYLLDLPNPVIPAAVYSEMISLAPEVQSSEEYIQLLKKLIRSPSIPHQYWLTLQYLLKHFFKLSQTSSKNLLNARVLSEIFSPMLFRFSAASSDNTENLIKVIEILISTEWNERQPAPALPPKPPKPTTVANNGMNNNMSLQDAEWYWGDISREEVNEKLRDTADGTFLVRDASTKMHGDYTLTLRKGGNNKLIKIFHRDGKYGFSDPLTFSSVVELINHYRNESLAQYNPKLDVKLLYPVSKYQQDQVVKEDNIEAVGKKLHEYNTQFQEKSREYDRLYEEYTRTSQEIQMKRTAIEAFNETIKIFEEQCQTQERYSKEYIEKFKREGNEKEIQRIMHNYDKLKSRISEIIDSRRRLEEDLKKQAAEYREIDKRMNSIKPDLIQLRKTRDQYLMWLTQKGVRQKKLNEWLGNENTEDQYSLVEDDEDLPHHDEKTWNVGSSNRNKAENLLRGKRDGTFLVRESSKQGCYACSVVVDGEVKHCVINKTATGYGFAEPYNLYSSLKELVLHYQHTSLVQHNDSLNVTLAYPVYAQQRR

PI3K δ = PI3K δ (Homo sapiens (Human), UniProt O00329); assay: PI 3-Kinase (human) HTRF assay, p110δ/p85α
Sequence of PI3K δ (O00329 whole entry): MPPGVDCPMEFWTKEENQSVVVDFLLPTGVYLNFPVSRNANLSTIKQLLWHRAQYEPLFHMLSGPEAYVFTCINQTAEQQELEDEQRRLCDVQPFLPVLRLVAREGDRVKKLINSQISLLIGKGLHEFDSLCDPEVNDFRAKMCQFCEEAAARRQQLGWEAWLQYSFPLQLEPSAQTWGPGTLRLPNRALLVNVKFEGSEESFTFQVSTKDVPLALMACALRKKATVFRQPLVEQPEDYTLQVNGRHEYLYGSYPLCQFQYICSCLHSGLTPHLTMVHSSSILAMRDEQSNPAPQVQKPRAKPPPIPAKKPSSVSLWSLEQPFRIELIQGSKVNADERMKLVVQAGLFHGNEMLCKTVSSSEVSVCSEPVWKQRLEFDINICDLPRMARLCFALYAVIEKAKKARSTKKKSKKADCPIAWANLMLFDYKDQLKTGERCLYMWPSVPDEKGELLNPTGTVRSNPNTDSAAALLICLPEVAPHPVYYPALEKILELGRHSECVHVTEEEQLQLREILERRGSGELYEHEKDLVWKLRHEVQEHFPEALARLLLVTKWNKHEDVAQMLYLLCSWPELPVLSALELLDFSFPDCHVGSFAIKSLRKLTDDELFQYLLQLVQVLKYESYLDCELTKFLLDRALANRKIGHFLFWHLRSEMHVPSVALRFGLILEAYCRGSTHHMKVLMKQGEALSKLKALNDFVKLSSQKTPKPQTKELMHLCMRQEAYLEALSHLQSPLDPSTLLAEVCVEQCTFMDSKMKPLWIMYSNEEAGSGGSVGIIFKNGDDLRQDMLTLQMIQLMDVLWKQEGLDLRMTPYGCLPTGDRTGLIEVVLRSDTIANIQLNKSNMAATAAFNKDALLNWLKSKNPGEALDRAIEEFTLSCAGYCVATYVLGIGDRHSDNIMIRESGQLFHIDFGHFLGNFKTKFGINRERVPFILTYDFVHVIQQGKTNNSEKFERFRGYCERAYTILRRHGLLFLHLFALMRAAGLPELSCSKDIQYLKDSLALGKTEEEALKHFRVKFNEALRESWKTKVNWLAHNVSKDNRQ
Sequence of PI3K δ (P27986 whole entry partner): as the sequence (P27986 whole entry partner) above

[1] = PI 3-Kinase (human) HTRF assay, p110δ/p85α; settings: read-out: PI3K γ IC50

Sequence of PI3K β (P42338 whole entry): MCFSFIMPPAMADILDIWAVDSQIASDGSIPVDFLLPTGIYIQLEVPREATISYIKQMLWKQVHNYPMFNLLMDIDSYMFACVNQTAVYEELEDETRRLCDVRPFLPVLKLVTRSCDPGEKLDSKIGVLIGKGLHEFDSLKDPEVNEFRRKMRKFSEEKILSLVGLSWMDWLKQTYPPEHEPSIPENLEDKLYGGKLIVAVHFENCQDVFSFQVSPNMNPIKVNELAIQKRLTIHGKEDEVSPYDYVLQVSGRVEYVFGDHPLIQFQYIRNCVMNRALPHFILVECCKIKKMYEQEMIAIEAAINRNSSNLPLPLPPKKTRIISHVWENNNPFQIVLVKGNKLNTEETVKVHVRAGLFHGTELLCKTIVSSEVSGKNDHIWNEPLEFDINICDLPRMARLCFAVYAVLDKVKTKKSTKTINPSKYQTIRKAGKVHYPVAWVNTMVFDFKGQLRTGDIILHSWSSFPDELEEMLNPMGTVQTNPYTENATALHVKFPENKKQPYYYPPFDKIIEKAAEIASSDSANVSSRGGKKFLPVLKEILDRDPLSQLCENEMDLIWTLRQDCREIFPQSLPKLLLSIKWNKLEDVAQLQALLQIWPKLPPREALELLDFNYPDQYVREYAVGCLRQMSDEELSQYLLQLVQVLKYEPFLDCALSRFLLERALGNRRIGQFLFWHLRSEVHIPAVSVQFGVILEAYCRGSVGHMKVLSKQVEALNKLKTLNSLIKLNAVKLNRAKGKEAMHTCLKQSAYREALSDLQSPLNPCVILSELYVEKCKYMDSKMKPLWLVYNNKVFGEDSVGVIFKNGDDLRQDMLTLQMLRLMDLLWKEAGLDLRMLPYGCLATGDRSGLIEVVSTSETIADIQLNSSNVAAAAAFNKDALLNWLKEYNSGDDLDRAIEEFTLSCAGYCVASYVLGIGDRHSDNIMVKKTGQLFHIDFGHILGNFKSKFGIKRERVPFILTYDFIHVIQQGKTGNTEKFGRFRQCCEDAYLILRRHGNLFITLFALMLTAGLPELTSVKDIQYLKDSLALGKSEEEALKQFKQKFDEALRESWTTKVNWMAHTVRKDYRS
Sequence of PI3K β (P27986 whole entry partner): as the sequence (P27986 whole entry partner) above

Structure (SMILES)	IC50 (PI3K γ; read-out: PI3K γ IC50) [nM]	IC50 (PI3K β) [nM]	IC50 (PI3K α) [nM]	IC50 (PI3K δ) [nM]	IC50 (PI3K γ; read-out: PI3K δ IC50) [nM]	IC50 [1] [nM]
Nc1nc2cc(-c3ccc4ncc(N5CCOCC5)n4n3)ccc2o1	< 10000	< 1000	< 1000	> 10000		
Nc1nc2cc(-c3cnc4ncc(-c5ccncc5)n4c3)ccc2o1	> 10000	> 10000	> 10000	> 10000		
Nc1nc2ccc(-c3ccc4ncn(C5CCOCC5)c(=O)c4c3)cc2o1	> 10000	> 10000	< 10000	> 10000		
CC(=O)N1CCC(n2cnc3ccc(-c4ccc5oc(N)nc5c4)cc3c2=O)CC1	> 10000		< 10000	> 10000		
Nc1nc2cc(-c3cn4c(-c5ccncc5)cnc4cn3)ccc2o1	< 1000	< 10000	< 100	< 10000		
Nc1nc2cc(-c3ccc4nccc(-c5ccncc5)c4c3)ccc2s1	< 100	< 100	< 100	< 100		
Nc1nc2cc(-c3ccc4ncc(-c5ccncc5)nc4c3)ccc2o1	< 100	< 10000	< 100	< 1000		
Nc1nc2cc(-c3ccc4ncn(C5CCNCC5)c(=O)c4c3)ccc2o1	< 10000	< 10000	< 100	> 10000		
CN1CCN(c2nc3cc(-c4ccc5oc(N)nc5c4)ccc3c(=O)n2C)CC1	> 10000	> 10000	< 10000	> 10000		
Cn1c(N2CCOCC2)nc2cc(-c3ccc4oc(N)nc4c3)ccc2c1=O	> 10000	> 10000	< 1000	> 10000		
CN1CCC(Nc2cnc3ccc(-c4ccc5oc(N)nc5c4)cc3n2)CC1	< 1000	< 1000	< 100	< 100		
CC(=O)N1CCC(Nc2cnc3ccc(-c4ccc5oc(N)nc5c4)cc3n2)CC1	< 100	< 10000	< 100	< 100		
Nc1nc2cc(-c3ccc4ncc(C(=O)NC5CCOCC5)n4c3)ccc2o1	< 100	< 10000	< 100	< 100		
CS(=O)(=O)N1CCN(c2cnc3ccc(-c4ccc5oc(N)nc5c4)cc3n2)CC1	< 100	< 1000	< 100	< 1000		
Nc1nc2cc(-c3ccc4ncc(N5CCNCC5)nc4c3)ccc2o1	< 1000	< 100	< 100	< 10000		
Nc1nc2cc(-c3ccc4ncnc(NC5CCN(C(=O)C6CC6)CC5)c4c3)ccc2o1	< 100	< 10000	< 100	< 100		
Nc1noc2c(-c3ccc4ncc(C(=O)N5CCOCC5)n4c3)cccc12		> 10000	> 10000		> 10000	> 10000
Nc1nc2cc(-c3ccc4ncc(C(=O)N5CC6(C5)OCCO6)n4c3)ccc2o1		< 10000	< 100		< 1000	> 10000
Nc1nc2cc(-c3ccc4nccc(CCN5CCOCC5)c4c3)ccc2o1 [Compound 27]	< 100		< 1000	< 10000		
Nc1nc2cc(-c3ccc4nccc(N5CCOCC5)c4c3)ccc2o1 [Compound 28]	< 100		< 100	< 1000		
CN1CCN(c2cc(-c3ccnc4ccc(-c5ccc6oc(N)nc6c5)cc34)ccn2)CC1 [Compound 30]	< 100		< 100	< 100		
Nc1nc2cc(-c3ccc4nccc(NC5CCOCC5)c4c3)ccc2o1 [Compound 32]	< 10000		< 10000	> 10000		
Nc1nc2cc(-c3ccc4nccc(NCCN5CCOCC5)c4c3)ccc2o1 [Compound 33]	< 1000		< 100	< 1000		
Nc1nc2cc(-c3ccc4ncc(-c5cccnc5)n4c3)ccc2o1 [Compound 37]	< 100		< 100	< 100		
Nc1nc2cc(-c3ccc4ncc(-c5cn[nH]c5)n4c3)ccc2o1 [Compound 38]	< 100		< 100	< 100		
CN1CCN(c2cc(-c3cnc4ccc(-c5ccc6oc(N)nc6c5)cn34)ccn2)CC1 [Compound 43]	< 100		< 100	< 100		
Nc1nc2cc(-c3ccc4ncc(N5CC(C(=O)N6CCOCC6)C5)nc4c3)ccc2o1 [drawing 442]		< 10000	> 10000		< 10000	< 10000
CN1CCN(C(=O)C2CN(c3cnc4ccc(-c5ccc6oc(N)nc6c5)cc4n3)C2)CC1 [drawing 443]		< 10000	> 10000		< 10000	< 10000
CN1CCN(C(=O)c2cnc3ccc(-c4ccc5oc(N)nc5c4)cn23)CC1 [drawing 570]		< 10000	< 1000		< 10000	> 10000

Further lines, with some results ahead:

IC50 (PI3K γ; read-out: PI3K γ IC50) [nM]	IC50 (PI3K β) [nM]	IC50 (PI3K α) [nM]	IC50 (PI3K δ) [nM]	Structure (SMILES)	IC50 (PI3K γ; read-out: PI3K δ IC50) [nM]	IC50 [1] [nM]
< 100	< 100	< 100	< 100	Nc1nc2cc(-c3ccc4ncc(-c5cccnc5)n4n3)ccc2o1		
< 1000	< 10000	< 1000	< 10000	Nc1nc2cc(-c3cn4c(-c5cn[nH]c5)cnc4cn3)ccc2o1		
> 10000	< 10000	< 1000	> 10000	CCN1CCC(n2cnc3ccc(-c4ccc5oc(N)nc5c4)cc3c2=O)CC1		
< 100	< 1000	< 100	< 1000	Nc1nc2cc(-c3ccc4ncc(-c5cn[nH]c5)nc4c3)ccc2o1		
< 100	< 100	< 100	< 1000	CC(C)N1CCN(c2cnc3ccc(-c4ccc5oc(N)nc5c4)cc3n2)CC1		
< 100	< 100	< 100	< 100	CC(=O)N1CCN(c2cnc3ccc(-c4ccc5oc(N)nc5c4)cc3n2)CC1		
< 100	< 1000	< 100	< 100	CS(=O)(=O)N1CCC(Nc2ncnc3ccc(-c4ccc5oc(N)nc5c4)cc23)CC1		
	< 1000	< 100		Nc1nc2cc(-c3ccc4ncc(C(=O)N5CCn6cncc6C5)n4c3)ccc2o1	< 10000	> 10000
	< 10000	< 100		C[C@@H]1COCCN1C(=O)c1cnc2ccc(-c3ccc4oc(N)nc4c3)cn12	< 1000	> 10000
< 100	< 1000		< 1000	Nc1nc2cccc(-c3ccc4nccc(-c5ccncc5)c4c3)c2s1 [Compound 17]		
	< 100	< 100	< 100	Nc1nc2cc(-c3ccc4nccc(-c5cn[nH]c5)c4c3)ccc2o1 [Compound 20]		
< 100		< 100	< 100	Nc1nc2cc(-c3ccc4ncnc(N5CCC(O)CC5)c4c3)ccc2o1 [Compound 29]		
< 100		< 100	< 100	Nc1nc2cc(-c3ccc4nccc(-c5cccnc5)c4c3)ccc2o1 [Compound 31]		
< 100		< 100	< 1000	CN1CCC(Oc2ncnc3ccc(-c4ccc5oc(N)nc5c4)cc23)CC1 [Compound 34]		
< 100		< 100	< 100	Nc1nc2cc(-c3ccc4ncc(C#CC5CC5)n4c3)ccc2o1 [Compound 39]		
